# Experimental data: patent US20220354963A1, “EXTRACELLULAR VESICLE LINKED TO MOLECULES AND USES THEREOF” (Codiak BioSciences, Inc., priority 2019, published 2022)
# Key:
# IL-1β = assay: In vivo peritonitis model, intraperitoneal LPS challenge, serum IL-1β; design: species or system mouse; settings: pre-treatment intraperitoneally 1 hour prior to challenge; 3 hours post-challenge
# Procedure: Intraperitoneal LPS challenge induces the production of IL-1β in mice, which can be detected in the systemic circulation 3 hours post-challenge.
# STAT3 mRNA [1] = assay: STAT3 mRNA expression in IL-6 stimulated PANC-1 cells, branched DNA assay; format: cell-based, human; settings: for STAT3 Inhibition 2 nM / STAT3 Inhibition 20 nM: 2 point DR data; for IC50: 5 point DR data, Lipofectamine2000 transfection, 48 hr, read-out: STAT3 PANC1 IC50 Prism
# Procedure: (§1) The ASOs of the present disclosure were tested for their ability to reduce STAT3 mRNA expression in IL-6 stimulated PANC-1 cells. The PANC-1 cells were grown in cell culture media and seeded onto a 96 well plate at a density of 20,000 cells/well. ASOs were tested in two separate cohorts: 2 doses or 5 doses were given to the PANC-1 cells (See TABLE 3) at final concentrations of 20 nM and 2 nM, respectively. The assay used Lipofectamine2000 transfection and a 48 hr treatment cycle, with incubation at 37° C. and 5% C02. Analysis of the mRNA expression was then carried out using a branched DNA assay.
# GAPDH = GAPDH inhibition in PANC-1 cells, same assay; format: cell-based, human; settings: 2 point DR data
# Procedure: as §1, with “The” for “The ASOs of the present disclosure were tested for their ability to reduce STAT3 mRNA expression in IL-6 stimulated PANC-1 cells. The”
# STAT3 mRNA [2] = assay: STAT3 mRNA expression in IL-6 stimulated PANC-1 cells, branched DNA assay; format: cell-based, human; settings: 5 point DR data
Compound,induction of IL-1β in the serum of LPS-challenged mice (IL-1β),STAT3 Inhibition 2 nM (STAT3 mRNA [1]),STAT3 Inhibition 20 nM (STAT3 mRNA [1]),IC50 (STAT3 mRNA [1]) [nM],GAPDH Inhibition 20 nM (GAPDH),STAT3 Max inihibition 24 nM (STAT3 mRNA [2])
CC(C)(O)c1coc(S(=O)(=O)NC(=O)Nc2c3c(cc4c2CCC4)CCC3)c1 [MCC950],inhibited,,,,,
102 (TTGGCTCGATCCAGGAGTGT; chemistry not given here) [compound 102],,82.7,89.5,0.473,16.00,78.02
120 (ATTATCTGAACCCCACTTCG; chemistry not given here) [compound 120],,62.8,93.4,2.05,12.00,87.43
107 (TAGCGTGGCTAGATCCACAT; chemistry not given here) [compound 107],,79.0,87.7,0.037,8.00,70.92
138 (CCATCTTAATGGGACTCACG; chemistry not given here) [compound 138],,53.0,86.8,1.31,9.00,85.33
105 (GGATAGTCCTCTAAGTGCAT; chemistry not given here) [compound 105],,79.4,91.6,1.47,13.00,85.61
103 (CTCCTGTTGGCTCGATCCAG; chemistry not given here) [compound 103],,82.5,95.8,0.465,10.00,89.93
